Results as given in patent US10519125B2, “Flavagline derivatives” (PIERRE FABRE MEDICAMENT, priority 2014, dated 2019).

What follows are compounds tested on HCT116 line (human colon cancer cell line) (assay: Antiproliferative (cytotoxic) activity on HCT116 line, ATPLite cell viability, 72 hours). Conditions: HCT-116, 72 h, read-out: HCT116 (EC50).
Type: cell-based
Description: 2.1. Antiproliferative Activity of the Compounds According to the Invention (IC50 in M)
Culture of Lines and Measurement of Cell Viability:
The HCT116 line (ATCC, CCL-247) derived from colon cancer was cultured in MEM (Minimum Essential Medium Eagle) supplemented with 2 mM L-glutamine (Sigma, G7513), 5% fetal calf serum (Sigma, F7524) and antibiotics (Sigma, A59-55). The protocol for determining cytotoxic activity consists in seeding cells on 96-well plates (Perkin Elmer, 6005668) at a density of 1500 cells per well. After 24 hours of incubation, the test compound is applied in each well, using serial dilutions in the solvent dimethylsulfoxide (DMSO) (Sigma, D8418), from 10 mM stock solutions in 100% DMSO. Each dilution was added to the cells 24 hours after seeding. Under these conditions, the final solvent concentration is 0.1% DMSO. A reading of cell proliferation was carried out 72 hours after addition of the products with the ATPLite™ kit (Perkin Elmer, 6016947) and according to the manufacturer's recommendations. The analysis of the proliferation results was carried out by comparison with conditions where only the carrier solvent (culture medium, 0.1% DMSO) was added to the cells. The dose-response curves obtained were analyzed using the PRISM 4.03 software (GraphPad Software Inc.), or by an equivalent analytical method, to determine the concentration of each compound which inhibits 50% of cell proliferation (EC50).
By way of example, the cytotoxic properties of several compounds of the invention evaluated on the HCT116 line (human colon cancer cell line) are reported in Table 1.
With `COC(=O)[C@H]1[C@@H](O)[C@@]2(O)c3c(OC)cc(OCCCCN)cc3O[C@@]2(c2ccc(OC)cc2)[C@@H]1c1ccccc1` [Compound 50, methyl (1R,2R,3S,3aR,8bS)-6-(4-aminobutoxy)-1,8b-dihydroxy-8-methoxy-3a-(4-methoxyphenyl)-3-phenyl-2,3,3a,8b-tetrahydro-1H-cyclopenta[b]benzofuran-2-carboxylate] the EC50 was 1.22 nM.
`COC(=O)[C@H]1[C@@H](O)[C@@]2(O)c3c(OC)cc(OCCCCN)cc3O[C@@]2(c2ccc(OC)cc2)[C@@H]1c1ccccc1` (racemic) [Compound 8, rac-(1R,2R,3S,3aR,8bS)-methyl 6-(4-aminobutoxy)-1,8b-dihydroxy-8-methoxy-3a-(4-methoxyphenyl)-3-phenyl-2,3,3a,8b-tetrahydro-1H-cyclopenta[b]benzofuran-2-carboxylate] showed an EC50 of 2.61 nM.

Same assay, conditions: HCT-116, HCT116, 72 hours after addition, ATPLite, read-out: HCT116 (EC50)
Work on `COc1ccc([C@@]23Oc4cc(OC)cc(OC)c4[C@]2(O)[C@@H]2OC(N)=N[C@@H]2[C@H]3c2ccccc2)cc1` (racemic) [Compound 47, rac-(3aR,4R,4aR,9bS,9cR)-2-amino-7,9-dimethoxy-4a-(4-methoxyphenyl)-4-phenyl-4,4a,9b,9c-tetrahydro-3aH-benzofuro[3′,2′:3,4]cyclopenta[1,2-d]oxazol-9b-ol] yielded an EC50 of 1.1 nM.
`COC(=O)[C@H]1[C@@H](O)[C@@]2(O)c3c(OC)cc(OCCCCN(C)C)cc3O[C@@]2(c2ccc(OC)cc2)[C@@H]1c1ccccc1` (racemic) [Compound 52, rac-methyl (1R,2R,3S,3aR,8bS)-6-(4-(dimethylamino)butoxy)-1,8b-dihydroxy-8-methoxy-3a-(4-methoxyphenyl)-3-phenyl-2,3,3a,8b-tetrahydro-1H-cyclopenta[b]benzofuran-2-carboxylate] was tested, and the EC50 was 4.9 nM.
`CN[C@H]1[C@@H](O)[C@@]2(O)c3c(OC)cc(OC)cc3O[C@@]2(c2ccc(OC)cc2)[C@@H]1c1ccccc1` (racemic) [Compound 15, rac-(1R,2R,3R,3aR,8bS)-6,8-dimethoxy-3a-(4-methoxyphenyl)-2-(methylamino)-3-phenyl-1,2,3,3a-tetrahydro-8bH-cyclopenta[b]benzofuran-1,8b-diol] showed an EC50 of 3.83 nM.
Work on `COc1ccc([C@@]23Oc4cc(OC)cc(OC)c4[C@]2(O)[C@@H]2OC(=O)N[C@@H]2[C@H]3c2ccccc2)cc1` (racemic) [Compound 40, rac-(3aR,4R,4aR,9bS,9cR)-9b-hydroxy-7,9-dimethoxy-4a-(4-methoxyphenyl)-4-phenyl-3,3a,4,4a,9b,9c-hexahydro-2H-benzofuro[3′,2′:3,4]cyclopenta[1,2-d]oxazol-2-one] yielded an EC50 of 2.52 nM.
`COc1ccc([C@@]23Oc4cc(OCCCC(O)CO)cc(OC)c4[C@]2(O)[C@@H]2OC(=O)N[C@@H]2[C@H]3c2ccccc2)cc1` (mixture of isomers) [Compound 41, rac-(3aR,4R,4aR,9bS,9cR)-7-((4,5-dihydroxypentyl)oxy)-9b-hydroxy-9-methoxy-4a-(4-methoxyphenyl)-4-phenyl-3,3a,4,4a,9b,9c-hexahydro-2H-benzofuro[3′,2′:3,4]cyclopenta[1,2-d]oxazol-2-one] gave an EC50 of 4.2 nM.
Work on `COc1ccc([C@@]23Oc4cc(OCCCCO)cc(OC)c4[C@]2(O)[C@@H]2OC(=O)N[C@@H]2[C@H]3c2ccccc2)cc1` (racemic) [Compound 42, rac-(3aR,4R,4aR,9bS,9cR)-9b-hydroxy-7-(4-hydroxybutoxy)-9-methoxy-4a-(4-methoxyphenyl)-4-phenyl-3,3a,4,4a,9b,9c-hexahydro-2H-benzofuro[3′,2′:3,4]cyclopenta[1,2-d]oxazol-2-one] yielded an EC50 of 2.16 nM.
